In patent publication US20230278972A1, “SUBSTITUTED HALOALKYL SULFONANILIDE HERBICIDES” (FMC Corporation, priority 2020, published 2023):

Assays:
[1] = tested on: barnyardgrass (Echinochloa crus-galli); assay: Test A preemergence, barnyardgrass; assay type: in vivo; details: Echinochloa crus-galli, pre-emergence, 240 h; for pest or weed control at 500 g/ha: read-out: Barnyardgrass plant response rating
In short: (§1)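 Greenhouse pot test in a loam–sand blend; compounds delivered in a non-phytotoxic solvent carrying a surfactant, applied either as a directed spray to soil at seeding or over seedlings 2 to 10 cm high with one to two leaves.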

kochia (Bassia scoparia) [2] = assay: Test A preemergence, kochia; assay type: in vivo; details: Bassia scoparia, pre-emergence, 240 h; for pest or weed control at 500 g/ha: read-out: Kochia plant response rating
In short: as §1

[3] = tested on: Ryegrass, Italian (Italian ryegrass, Lolium multiflorum); assay: Test A preemergence, Ryegrass, Italian; assay type: in vivo; details: Lolium multiflorum, pre-emergence, 240 h; for pest or weed control at 500 g/ha: read-out: Ryegrass, Italian plant response rating
In short: as §1

[4] = tested on: Foxtail, Giant (giant foxtail, Setaria faberi); assay: Test A preemergence, Foxtail, Giant; assay type: in vivo; details: Setaria faberi, pre-emergence, 240 h; for pest or weed control at 500 g/ha: read-out: Foxtail, Giant plant response rating
In short: as §1

[5] = tested on: pigweed (Amaranthus retroflexus); assay: Test A preemergence, pigweed; assay type: in vivo; details: Amaranthus retroflexus, pre-emergence, 240 h, 1000 g ai/ha, 0 to 100 scale (0 no effect, 100 complete control), read-out: Plant response rating, Pigweed
In short: (§2)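 Compounds in non-phytotoxic solvent with surfactant. Soil: loam/sand. Preemergence via directed soil spray after seeding; postemergence on seedlings 2–10 cm, one- to two-leaf.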

[6] = tested on: barnyardgrass (Echinochloa crus-galli); assay: Test A postemergence, barnyardgrass; assay type: in vivo; details: Echinochloa crus-galli, post-emergence, 240 h, read-out: Plant response rating, Barnyardgrass
In short: as §2

kochia (Bassia scoparia) [7] = assay: Test A postemergence, kochia; assay type: in vivo; details: Bassia scoparia, post-emergence, 240 h, read-out: Plant response rating, Kochia
In short: as §1

[8] = tested on: ragweed (common ragweed, Ambrosia artemisiifolia); assay: Test A postemergence, ragweed; assay type: in vivo; details: Ambrosia artemisiifolia, post-emergence, 240 h, read-out: Plant response rating, Ragweed
In short: as §1

[9] = tested on: Ryegrass, Italian (Italian ryegrass, Lolium multiflorum); assay: Test A postemergence, Ryegrass, Italian; assay type: in vivo; details: Lolium multiflorum, post-emergence, 240 h, read-out: Plant response rating, Ryegrass, Italian
In short: as §1

[10] = tested on: Foxtail, Giant (giant foxtail, Setaria faberi); assay: Test A postemergence, Foxtail, Giant; assay type: in vivo; details: Setaria faberi, post-emergence, 240 h, read-out: Plant response rating, Foxtail, Giant
In short: as §1

[11] = tested on: pigweed (Amaranthus retroflexus); assay: Test A postemergence, pigweed; assay type: in vivo; details: Amaranthus retroflexus, post-emergence, 240 h, read-out: Plant response rating, Pigweed
In short: as §1

[12] = tested on: wheat (Triticum aestivum); assay: Test A postemergence, wheat; assay type: in vivo; details: Triticum aestivum, post-emergence, 240 h, read-out: Plant response rating, Wheat
In short: as §2

corn (Zea mays) = assay: Test A postemergence, corn; assay type: in vivo; details: Zea mays, post-emergence, 240 h; for plant injury at 125 g/ha / plant injury at 500 g/ha: read-out: Plant response rating, Corn
In short: as §1

[13] = tested on: blackgrass (Alopecurus myosuroides); assay: Test A postemergence, blackgrass; assay type: in vivo; details: Alopecurus myosuroides, post-emergence, 240 h, read-out: Plant response rating, Blackgrass
In short: as §1

[14] = tested on: galium (catchweed bedstraw, Galium aparine); assay: Test A postemergence, galium; assay type: in vivo; details: Galium, post-emergence, 240 h, read-out: Plant response rating, Galium
In short: as §2

rice (Oryza sativa) = assay: Test B flooded paddy test, rice; details: 336 h, read-out: Plant response rating, Rice
[15] = tested on: ducksalad (Heteranthera limosa); assay: Test B flooded paddy test, ducksalad; details: 336 h, read-out: Plant response rating, Ducksalad
[16] = tested on: barnyardgrass (Echinochloa crus-galli); assay: Test B flooded paddy test, barnyardgrass; details: 336 h, read-out: Plant response rating, Barnyardgrass
[17] = tested on: ragweed (common ragweed, Ambrosia artemisiifolia); assay: Test A preemergence, ragweed; assay type: in vivo; details: Ambrosia artemisiifolia, pre-emergence, 240 h; for pest or weed control at 125 g/ha: read-out: Plant response rating, Ragweed; for pest or weed control at 500 g/ha: read-out: Ragweed plant response rating
In short: as §1

[18] = Postemergence, 1000 g ai/ha, visual injury, 0 to 100 scale (0 no effect, 100 complete control), approx. 10 days
[19] = read-out: Plant response rating, Barnyardgrass
[20] = read-out: Plant response rating, Kochia
[21] = read-out: Plant response rating, Ryegrass, Italian
[22] = read-out: Plant response rating, Foxtail, Giant

| SMILES | plant injury at 250 g/ha (rice (Oryza sativa)) [%] | pest or weed control at 250 g/ha [15] [%] | pest or weed control at 250 g/ha [16] [%] | pest or weed control at 500 g/ha [1] [%] | pest or weed control at 125 g/ha [1, 19] [%] | pest or weed control at 500 g/ha (kochia (Bassia scoparia) [2]) [%] | pest or weed control at 125 g/ha (kochia (Bassia scoparia) [2]; [20]) [%] | pest or weed control at 125 g/ha [17] [%] | pest or weed control at 500 g/ha [17] [%] | pest or weed control at 125 g/ha [3, 21] [%] | pest or weed control at 500 g/ha [3] [%] | pest or weed control at 500 g/ha [4] [%] | pest or weed control at 125 g/ha [4, 22] [%] | pest or weed control at 125 g/ha [6] [%] | pest or weed control at 500 g/ha [6] [%] | pest or weed control at 125 g/ha (kochia (Bassia scoparia) [7]) [%] | pest or weed control at 500 g/ha (kochia (Bassia scoparia) [7]) [%] | pest or weed control at 125 g/ha [8] [%] | pest or weed control at 500 g/ha [8] [%] | pest or weed control at 125 g/ha [9] [%] | also measured |
| --- | --- | --- | --- | --- | --- | --- | --- | --- | --- | --- | --- | --- | --- | --- | --- | --- | --- | --- | --- | --- | --- |
| Cc1cc(C)c(C(=O)N2CCOCC2)cc1NS(=O)(=O)C(F)(F)F [Compound 6, N-[2,4-Dimethyl-5-(4-morpholinylcarbonyl)phenyl]-1,1,1-trifluoromethanesulfonamide] | 0 | 0 | 0 | – | – | – | – | – | – | – | – | – | – | – | – | – | – | – | – | – | pest or weed control at 1000 g/ha ([1]; Preemergence, 1000 g ai/ha, 0 to 100 scale (0 no effect, 100 complete control), read-out: Plant response rating, Barnyardgrass): 100%; pest or weed control at 1000 g/ha (kochia (Bassia scoparia) [2]; Preemergence, 1000 g ai/ha, 0 to 100 scale (0 no effect, 100 complete control), read-out: Plant response rating, Kochia): 100%; pest or weed control at 1000 g/ha ([3]; Preemergence, 1000 g ai/ha, 0 to 100 scale (0 no effect, 100 complete control), read-out: Plant response rating, Ryegrass, Italian): 100%; pest or weed control at 1000 g/ha ([4]; Preemergence, 1000 g ai/ha, 0 to 100 scale (0 no effect, 100 complete control), read-out: Plant response rating, Foxtail, Giant): 100%; pest or weed control at 1000 g/ha [5]: 100%; pest or weed control at 1000 g/ha [6, 18]: 90%; pest or weed control at 1000 g/ha (kochia (Bassia scoparia) [7]; [18]): 80%; pest or weed control at 1000 g/ha [8, 18]: 50%; pest or weed control at 1000 g/ha [9, 18]: 80%; pest or weed control at 1000 g/ha [10, 18]: 90%; pest or weed control at 1000 g/ha [11, 18]: 100%; plant injury at 1000 g/ha [12, 18]: 60%; Corn plant response rating (crop injury, 0 = no effect, 100 = complete kill) at 1000 g/ha (corn (Zea mays); [18]): 60%; pest or weed control at 1000 g/ha [13, 18]: 60%; pest or weed control at 1000 g/ha [14, 18]: 90% |
| Cc1cc(C)c(N(COC(=O)C(C)(C)C)S(=O)(=O)C(F)(F)F)cc1N1CCC2(CCCCC2)C1=O [Compound 268, [[2,4-Dimethyl-5-(1-oxo-2-azaspiro[4.5]dec-2-yl)phenyl][(trifluoromethyl)sulfonyl]amino]methyl 2,2-dimethylpropanoate] | 0 | 70 | 40 | 50 | 40 | 70 | 70 | 40 | 90 | 0 | 60 | 70 | 50 | 50 | 80 | 30 | 40 | 70 | 90 | 40 | pest or weed control at 500 g/ha [9]: 60%; pest or weed control at 125 g/ha [10]: 0%; pest or weed control at 500 g/ha [10]: 30%; pest or weed control at 125 g/ha [11]: 60%; pest or weed control at 500 g/ha [11]: 80%; plant injury at 125 g/ha [12]: 50%; plant injury at 500 g/ha [12]: 70%; plant injury at 125 g/ha (corn (Zea mays)): 50%; plant injury at 500 g/ha (corn (Zea mays)): 70%; pest or weed control at 125 g/ha [13]: 20%; pest or weed control at 500 g/ha [13]: 40%; pest or weed control at 125 g/ha [14]: 90%; pest or weed control at 500 g/ha [14]: 90% |
| Cc1cc(C)c(N2CCC3(CCCCC3)C2=O)cc1NS(=O)(=O)C(F)(F)F [Compound 278, N-[2,4-Dimethyl-5-(1-oxo-2-azaspiro[4.5]dec-2-yl)phenyl]-1,1,1-trifluoromethanesulfonamide] | 15 | 85 | 0 | 100 | 60 | 100 | 90 | 90 | 100 | 100 | 100 | 100 | 60 | 20 | 80 | 30 | 70 | 40 | 60 | 30 | pest or weed control at 500 g/ha [9]: 80%; pest or weed control at 125 g/ha [10]: 0%; pest or weed control at 500 g/ha [10]: 20%; pest or weed control at 125 g/ha [11]: 60%; pest or weed control at 500 g/ha [11]: 90%; plant injury at 125 g/ha [12]: 60%; plant injury at 500 g/ha [12]: 70%; plant injury at 125 g/ha (corn (Zea mays)): 0%; plant injury at 500 g/ha (corn (Zea mays)): 30%; pest or weed control at 125 g/ha [13]: 0%; pest or weed control at 500 g/ha [13]: 50%; pest or weed control at 125 g/ha [14]: 90%; pest or weed control at 500 g/ha [14]: 90% |
